Counter-ions that a name gives are not always drawn.
Experiments:
[1] = stability (degradation test) in acidified plasma; assay type: in vitro ADME, rat; conditions: for Sample Peak Average: rat, 5 μmol/ml
Description: • a: Compound 5 prepared in Example 5 was dissolved in purified water to prepare solution A with a concentration of 10 mg/ml; 150 μl of solution A was added to 660 μl of pre-warmed plasma (37° C.), and the pH was adjusted with 0.1% acetic acid to dissolve the sample clear to obtain solution B; • b: Solution B (5 μmol/ml) was stirred in a water bath at 37° C. for a certain period of time (1 min, 2 min, 4 min, 8 min, 16 min, 30 min, 1 h, 2 h, 4 h) and 50 μl was sampled at each time point; • c: 50 μl of the sampled solution was added to 950 μl methanol (0.1% AcH) to precipitate plasma proteins, resulting in mixture C. • d: The mixture C was vortexed for 1 s, centrifuged at 12000 r for 3 min, and the supernatant was taken for testing.
Liquid phase detection: take 10 μl of the supernatant after the above centrifugation into a sample for measurement.

[2] = test system: lipopolysaccharide-induced depression mouse model; assay: lipopolysaccharide-induced depression mouse model (open field, forced swimming test, body weight); assay type: in vivo, ICR mice
Description: Positive drug: fluoxetine hydrochloride capsule (specification 20 mg), take the content in a mortar, add 40 ml of 0.5% CMC-Na solution while grinding, to a suspended state, set EP tube for use; test drug (compound 5): dissolve into 5, 10, and 20 mg/ml solutions in distilled water, respectively, and put them in EP tubes for later use; modeling drug (LPS): take a frozen lipopolysaccharide PBS solution (1.2 mg: 1.2 ml), and after thawing Use a pipette to take 1 ml into the EP tube, replace with a new pipette tip and pipette 9 ml of normal saline into the EP tube, shake well for use.
Except for the first group (blank control group), other groups of animals were intraperitoneally injected with LPS 2 h before the last administration on the 7th day to the mice in the model group, the positive drug group, and the low, middle and high dose groups of the test drug.
The first group was the blank control group, which was given 0.5% CMC-Na 0.2 ml/20 g by gavage; the second group was the model group, which was given 0.5% CMC-Na by gavage; the third group was the positive drug group, which was given by gavage Flunarizine hydrochloride (sibilin) 1 mg/kg; the fourth group was the low-dose group of the test drug, which was given 100 mg/kg of compound 5 by gavage; the fifth group was the medium-dose group of the test drug, which was given 200 mg/kg by gavage. kg of compound 5; the sixth group was the test drug high-dose group, and 400 mg/kg of compound 5 was administered by gavage. The drug was administered for one week, and the second to sixth groups were intraperitoneally injected with 1 mg/kg (0.2 ml/20 g) of LPS on the seventh day to establish a model.
On the 7th day, before the last administration and modeling, the effect of the drug on the spontaneous activity of the mice should be investigated, and it is excluded that the drug increases the spontaneous activity of the mice and interferes with the immobility time in the forced swimming experiment. The total migration distance of each mouse in the open field (50×50×50 cm) within 5 min was calculated using the open field experimental instrument and related computer software. Before the data collection, each mouse was given 5 min to familiarize with the open field environment, after each mouse was tested, its excrement was removed and the odor was eliminated with an alcohol spray bottle.
Because the air temperature is low, it is appropriate to control the water temperature by adding hot water to the cylinder.
In the spontaneous activity, the behavioral index selects the total migration distance of mice in the open field within 5 minutes,
by tracking the movement trajectory of mice through monitoring devices, and using computer software, the total distance of movement can be directly obtained; in the FST experiment, the mice were placed in a into a transparent cylinder filled with warm water (about 25° C.) for 6 minutes, the mice will experience struggling, swimming and floating behaviors, the time when the mice stop struggling to float on the water surface is identified as a state of despair caused by depression, by using monitoring equipment and computer software to statistically analyze the state of mice after 4 minutes, the total “Immobility time” can be directly obtained.

[3] = test system: nitroglycerin-induced migraine mouse model; assay: nitroglycerin-induced migraine mouse model (hot plate, head scratching, body weight); assay type: in vivo, ICR mice; conditions: for hind feet licking time (hot plate) / total number of head scratching times: reference model group, day 5; for hind feet licking time (hot plate): 45 min after modeling, p<0.05
Description: 48 ICR mice weigt 18-22 g, half male and half female; purchased from Qinglongshan Animal Breeding Farm, Jiangning District, Nanjing City, certificate: SCXK (Su) 2017-0001; rearing conditions: room temperature 18-20° C., same sex rearing in separate cages, 12 hours of light, regular ventilation, conventional full-price solid feed feeding, bedding changed every two days; 48 mice were randomly divided into 6 groups (blank control group, model group, positive drug group, low-dose group of test drug, medium-dose group of test drug, high-dose group of test drug), 8 animals (4♀4) in each group, marked No. 1-8 with picric acid respectively.
Solvent: 0.5% CMC-Na aqueous solution; positive drug: flunarizine hydrochloride (sibelin) capsules (specification 5 mg), take the contents in a mortar, add 100 ml of 0.5% CMC-Na solution while grinding, placed in EP tubes for standby; Test drug (compound 5): dissolve into 5, 10, 20 mg/ml solutions with distilled water respectively, and placed in EP tubes for standby; Modeling drug (nitroglycerin): take 2 nitroglycerin tablets (specification 5 mg), crushed into powder, placed in EP tubes, added 500 μl of propylene glycol with a pipette and shaken well, standing still for 5 minutes, added 9.5 ml of normal saline, shaken well and standing still overnight, take the supernatant (containing nitroglycerin) 1 mg/ml) for use.
Except for the first group (blank control group), animals in other groups were subcutaneously injected with 10 mg/kg (0.2 ml/20 g) of nitroglycerin back-up solution 1 h after each administration (modeling once every other day on the 1st, 3rd, and 5th days).
The first group was the blank control group, which was given 0.5% CMC-Na 0.2 ml/20 g by gavage; the second group was the model group, which was given 0.5% CMC-Na by gavage; the third group was the positive drug group, which was given by gavage Flunarizine hydrochloride (sibilin) 1 mg/kg; the fourth group was the low-dose group of test drug, which was given 100 mg/kg of compound 5 by gavage; the fifth group was the medium-dose group of test drug, which was given 200 mg/kg of compound 5 by gavage; the sixth group was the high-dose group of test drug, which was given 400 mg/kg of compound 5 by gavage. Dosing every other day on days 1, 3, and 5.
In behavioral studies, mice scratching their heads for more than 5 times or scratching their faces with forelimbs for more than 5 times were identified as migraine-related behaviors caused by modeling, with a record of scratching their heads once; in the hot plate method, mice lifted their hind limbs and licked their hind feet as the observation indicator, record the time immediately.

CC(C)c1cccc(C(C)C)c1OC(=O)CC1(CN(C)C)CCCCC1 [Compound 5, 2,6-diisopropylphenyl 2-(1-((dimethylamino)methyl)cyclohexyl)acetate hydrochloride]
degradation / stability in acidified plasma ([1]; plasma acidified with 0.1% acetic acid, 37° C., up to 2 h): not significantly degraded | Sample Peak Average ([1]; 1 min): 196752060 | Sample Peak Average ([1]; 2 min): 189140125 | Sample Peak Average ([1]; 4 min): 184526452 | Sample Peak Average ([1]; 8 min): 182379068 | Sample Peak Average ([1]; 16 min): 176475001 | Sample Peak Average ([1]; 30 min): 179508039 | Sample Peak Average ([1]; 1 h): 175087504 | Sample Peak Average ([1]; 2 h): 171193983 | effect on body weight of mice ([2]; compound 5 100, 200, 400 mg/kg and positive drug, gavage for one week): no significant effect | alleviation of depressive behavior caused by LPS ([2]; compound 5 100, 200, 400 mg/kg and positive drug, gavage for one week, no statistical difference found): certain alleviation effect | spontaneous activity: total migration distance in open field within 5 minutes ([2]; reference blank group, day 7 before last administration, all dose groups, p>0.05): no significant effect | FST immobility time ([2]; reference model group, compound 5 100, 200, 400 mg/kg and positive drug, gavage for one week, 4 h after LPS): not significantly different (p>0.05) | alleviation of nitroglycerin-induced migraine in mice ([3]; by gavage on days 1, 3, 5, compound 5 100, 200, 400 mg/kg): effectively alleviate | weight gain of mice ([3]; mouse, in vivo): no significant effect | hind feet licking time (hot plate) ([3]; high dose 400 mg/kg gavage): significant difference | total number of head scratching times ([3]; high dose 400 mg/kg gavage): significant difference (p<0.05) | total number of head scratching times ([3]; low dose 100 mg/kg gavage): extremely significant (p<0.01) | total number of head scratching times ([3]; medium dose 200 mg/kg gavage): extremely significant (p<0.01) | hind feet licking time (hot plate) ([3]; middle dose 200 mg/kg gavage): significant difference

Reference: patent US20250082760A1 (priority 2020, published 2025)
